# Values of other authors in patent US20040247544A1, “Use of dialkyl sulphones in cosmetic nailcare compositions for promoting growth of the nails” (L'OREAL, priority 2002, published 2004).
# Read-outs that look alike come from different tables or passages of the source.
# What was measured:
# nails [1] = system: nails
# nails [2] = settings: oral ingestion, aqueous 5% solution, dogs
smiles,measurement,setting,value
"CS(C)(=O)=O [MSM, methylsulphonylmethane]",strength and brittleness of the nails,"nails [1]; aqueous formulation containing 10% MSM and 50% water, applied to the nails with cotton wool, left to act for 15 minutes",strong and less brittle
same,brittleness of the nails,nails [1]; nail-varnish removers: standard varnish solvent with 5 to 10% of MSM,less brittle
same,brittleness of the nails,nails [1]; solvent-based (ethyl acetate or amyl acetate) varnish containing 5% by weight of MSM,less brittle
same,growth of the nails,nails [2],promotes and stimulates the growth of the nails
